Measurements as given in ChEMBL document CHEMBL4043272, “Synthesis and in vitro biological evaluation of new pyrimidines as glucagon-like peptide-1 receptor agonists” (Bioorg Med Chem Lett, 2017).
The source made the active and inactive calls. The calls are words filed in the database; no cut-off is given here.

Key:
Assay type in all cases: cell-based
[1] = biological target: T1, Glucagon-like peptide 1 receptor (Mus musculus) (UniProt O35659); test: Agonist activity at GLP1 receptor in mouse BetaTC6 cells assessed as increase in insulin secretion at 10^-15 to 10^-12 M after 120 mins by sandwich ELISA
T1 sequence (whole entry): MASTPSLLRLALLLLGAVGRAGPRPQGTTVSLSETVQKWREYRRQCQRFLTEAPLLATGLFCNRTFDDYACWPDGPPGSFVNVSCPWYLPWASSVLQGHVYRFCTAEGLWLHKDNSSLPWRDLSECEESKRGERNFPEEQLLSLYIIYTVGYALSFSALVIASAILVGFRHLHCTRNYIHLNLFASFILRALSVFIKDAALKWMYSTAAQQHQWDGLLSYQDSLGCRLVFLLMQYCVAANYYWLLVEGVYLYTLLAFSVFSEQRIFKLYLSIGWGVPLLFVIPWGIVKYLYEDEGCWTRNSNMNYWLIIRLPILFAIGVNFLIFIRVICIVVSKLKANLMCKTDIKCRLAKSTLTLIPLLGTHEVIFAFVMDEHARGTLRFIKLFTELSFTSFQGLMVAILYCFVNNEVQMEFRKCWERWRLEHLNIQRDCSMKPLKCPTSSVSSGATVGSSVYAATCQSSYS

[2] = biological target: T1, Glucagon-like peptide 1 receptor (Mus musculus); test: Agonist activity at GLP1 receptor in mouse BetaTC6 cells assessed as increase in glucose-dependent insulin secretion at 10^-15 M after 120 mins by sandwich ELISA
[3] = biological target: T1, Glucagon-like peptide 1 receptor (Mus musculus); test: Agonist activity at GLP1 receptor in mouse BetaTC6 cells assessed as increase in insulin secretion at 10^-15 to 10^-9 M after 120 mins by sandwich ELISA
[4] = biological target: T1, Glucagon-like peptide 1 receptor (Mus musculus); test: Agonist activity at GLP1 receptor in mouse BetaTC6 cells assessed as increase in glucose-dependent insulin secretion after 120 mins by sandwich ELISA
[5] = biological target: T1, Glucagon-like peptide 1 receptor (Mus musculus); test: Agonist activity at GLP1 receptor in mouse BetaTC6 cells assessed as increase in glucose-dependent insulin secretion at 10^-15 to 10^-9 M after 120 mins by sandwich ELISA

| Activity [1] | Activity [2] | Activity [3] | Activity [4] | Activity [5] | Structure (SMILES) |
| --- | --- | --- | --- | --- | --- |
| Active | Active |  |  |  | c1ccc(CNc2ccnc(NC3CCCCCC3)n2)cc1 |
|  |  | Active | inactive |  | Cc1ccc(S(=O)(=O)NC(=O)Nc2ccnc(N)n2)cc1 |
| Active |  |  |  | inactive | O=C(Nc1nccc(N/N=C/c2ccc(F)cc2)n1)NC1CCCC1 |
